This note sets out measurements from patent US9394305B2, “Substituted imidazo[1,2-a]pyridine compounds as tropomyosin receptor kinase a (TrkA) inhibitors” (Dr. Reddy's Laboratories Ltd., priority 2014, dated 2016).

Structures are written as SMILES.

For the first assay, the target named is T1, TrkA kinase (Homo sapiens, UniProt P04629).
T1 construct: purchased Upstate, USA
T1 sequence (P04629 33-796): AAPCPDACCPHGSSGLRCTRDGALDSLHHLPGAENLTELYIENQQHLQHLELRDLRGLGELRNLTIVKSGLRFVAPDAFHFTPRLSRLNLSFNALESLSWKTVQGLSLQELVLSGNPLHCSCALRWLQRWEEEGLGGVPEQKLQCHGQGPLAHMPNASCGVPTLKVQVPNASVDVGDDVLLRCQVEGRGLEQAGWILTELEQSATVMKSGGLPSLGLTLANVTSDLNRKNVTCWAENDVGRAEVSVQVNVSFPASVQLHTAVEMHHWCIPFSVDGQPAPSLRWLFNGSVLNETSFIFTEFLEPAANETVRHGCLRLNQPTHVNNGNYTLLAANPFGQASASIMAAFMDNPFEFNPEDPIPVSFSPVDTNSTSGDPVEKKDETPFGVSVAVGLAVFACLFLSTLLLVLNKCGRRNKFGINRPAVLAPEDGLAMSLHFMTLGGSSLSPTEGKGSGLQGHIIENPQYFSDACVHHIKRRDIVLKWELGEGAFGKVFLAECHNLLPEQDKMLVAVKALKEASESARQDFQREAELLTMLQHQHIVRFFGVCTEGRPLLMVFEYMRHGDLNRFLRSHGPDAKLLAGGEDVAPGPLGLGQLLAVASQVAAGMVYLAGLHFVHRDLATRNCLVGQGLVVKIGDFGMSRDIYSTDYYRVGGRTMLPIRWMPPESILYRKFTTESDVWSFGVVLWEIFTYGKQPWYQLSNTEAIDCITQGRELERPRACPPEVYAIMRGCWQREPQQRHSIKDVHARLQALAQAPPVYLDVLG
The assay can be described thus: In vitro TrkA inhibitory activity using TR-FRET assay. It counts as biochemical. Conditions: 5 ng TrkA, 500 μM ATP, values given as bins, read-out: TrkA inhibition in-vitro IC50. How it is done:
Compounds were screened in the TR-FRET assay with TrkA kinase. 5 ng of TrkA [Upstate, USA] kinase was used for assay. The compound was incubated with the kinase for 30 minutes at 20-35° C. After the incubation, substrate mix [40 nM Ultra light poly GT (Perkin Elmer, USA) and 500 μM ATP] was added. The above reaction was stopped by the addition of 40 mM EDTA after 30 minutes. The Eu-labelled antiphospho-tyrosine antibody [Perkin Elmer, USA] was added at 0.5 nM and the fluorescence emission at 615 nm/665 nm [excitation at 340 nm] was measured. The compounds were initially screened at 100 nM, 1 μM and 10 μM concentrations. The potent compounds with >25% inhibition at 1 μM of TrkA were taken for the full dose response studies. The final DMSO concentration in the assay was […]. For IC50 determination, ⅓^rd serial dilution was made from the 20 mM DMSO stock solution. 2 μl of these were transferred to the test wells containing 20 μl reaction mixture [Total reaction volume 22 μl]. The fluorescence was measured in Perkin Elmer Wallac 1420 Multilabel Counter Victor 3. The IC50 was determined by fitting the dose response data to a sigmoidal curve fitting equation using GraphPad Prism software version 5.
On the technique in general: In TR-FRET formats the signal depends on donor and acceptor labels being close together.
One may read the IC50 as the concentration needed to halve the response being measured. With `CCOC(=O)CNC(=O)c1cnc2ccc(N3CCC[C@H]3c3cc(F)ccc3F)cn12` (single isomer, unassigned) [Example 18, Ethyl 2-(6-(2-(2,5-difluorophenyl)pyrrolidin-1-yl)imidazo[1,2-a]pyridine-3-carboxamido)acetate], the IC50 was 100 to 500 nM.

For the compound `O=C(O)CNC(=O)c1cnc2ccc(N3CCC[C@H]3c3cc(F)ccc3F)cn12` (single isomer, unassigned) [Example 19, 2-(6-(2-(2,5-difluorophenyl)pyrrolidin-1-yl)imidazo[1,2-a]pyridine-3-carboxamido)acetic acid], the IC50 is 100 to 500 nM.

In the case of `CCN(C)S(=O)(=O)NC(=O)c1cnc2ccc(N3CCCC3c3cc(F)ccc3O[C@@H]3CCOC3)cn12` (single isomer, unassigned) [Example 63], the IC50 is at most 50 nM.

For `CC1(S(=O)(=O)NC(=O)c2cnc3ccc(N4CCCCC4c4cc(F)ccc4F)cn23)CC1` (single isomer, unassigned) [Example 69, 6-(2-(2,5-difluorophenyl)piperidin-1-yl)-N-((1-methylcyclo-propyl)sulfonyl)imidazo[1,2-a]pyridine-3-carboxamide], the IC50 was at most 50 nM.

Turning to `CN(CCF)S(=O)(=O)NC(=O)c1cnc2ccc(N3CCCC3c3cc(F)cc4c3OCCO4)cn12` (single isomer, unassigned) [Example 71, 6-(2-(7-fluoro-2,3-dihydrobenzo[b][1,4]dioxin-5-yl)pyrrolidin-1-yl)-N-(N-(2-fluoroethyl)-N-methylsulfamoyl)imidazo[1,2-a]pyridine-3-carboxamide], the IC50 lay within 100 to 500 nM.

Regarding `CCN(C)S(=O)(=O)NC(=O)c1cnc2ccc(N3CCCC3c3cc(F)cc4c3OCCO4)cn12` (single isomer, unassigned) [Example 72, N-(N-ethyl-N-methylsulfamoyl)-6-(2-(7-fluoro-2,3-dihydrobenzo [b][1,4]dioxin-5-yl)pyrrolidin-1-yl)imidazo[1,2-a]pyridine-3-carboxamide], the IC50 is 100 to 500 nM.

For the compound `O=C(c1cnc2ccc(N3CCCC3c3cc(F)ccc3F)cn12)N1CC(O)C1` (single isomer, unassigned) [Example 73, (6-(2-(2,5-difluorophenyl)pyrrolidin-1-yl)imidazo[1,2-a]pyridine-3 yl)(3-hydroxyazetidin-1-yl)methanone], the IC50 is at most 50 nM.

For the compound `O=C(Nc1ccc(F)cc1)c1cnc2ccc(N3CCCC3c3cc(F)ccc3F)cn12` (stereo not drawn) [Example 1, 6-(2-(2,5-difluorophenyl)pyrrolidin-1-yl)-N-(4-fluorophenyl)imidazo[1,2-a]pyridine-3-carboxamide], the IC50 is at most 50 nM.

With `O=C(Nc1cnc2ccc(N3CCCC3c3cc(F)ccc3F)cn12)N1CC[C@H](O)C1` (stereo partly drawn) [Example 2, (3 S)—N-(6-(2-(2,5-difluorophenyl)pyrrolidin-1-yl)imidazo[1,2-a]pyridin-3-yl)-3-hydroxypyrrolidine-1-carboxamide], the IC50 was in the range of 100 to 500 nM.

Turning to `O=C(c1cnc2ccc(N3CCCC3c3cc(F)ccc3F)cn12)N1CC[C@H](O)C1` (stereo partly drawn) [Example 3, (6-(2-(2,5-difluorophenyl)pyrrolidin-1-yl)imidazo[1,2-a]pyridin-3-yl)((S)-3-hydroxypyrrolidin-1-yl)methanone], the IC50 was at most 50 nM.

In the case of `O=C(c1cnc2ccc(N3CCCC3c3cc(F)ccc3F)cn12)N1CC(O)C1` (stereo not drawn) [Example 4, (6-(2-(2,5-difluorophenyl)pyrrolidin-1-yl)imidazo[1,2-a]pyridin-3-yl)(3-hydroxyazetidin-1-yl)methanone], the IC50 is at most 50 nM.

In the case of `O=C(NC(CO)CO)c1cnc2ccc(N3CCCC3c3cc(F)ccc3F)cn12` (stereo not drawn) [Example 5, 6-(2-(2,5-difluorophenyl)pyrrolidin-1-yl)-N-(1,3-dihydroxypropan-2-yl)imidazo[1,2-a]pyridine-3-carboxamide], the IC50 was at most 50 nM.

Consider `CN(C)C(=O)c1cnc2ccc(N3CCCC3c3cc(F)ccc3F)cn12` (stereo not drawn) [Example 8, 6-(2-(2,5-difluorophenyl)pyrrolidin-1-yl)-N,N-dimethylimidazo[1,2-a]pyridine-3-carboxamide], for which the IC50 lay in the range of 100 to 500 nM.

As to `O=C(c1ccc(F)cc1)c1cnc2ccc(N3CCCC3c3cc(F)ccc3F)cn12` (stereo not drawn) [Example 10, (6-(2-(2,5-difluorophenyl)pyrrolidin-1-yl)imidazo[1,2-a]pyridin-3-yl)(4-fluorophenyl)methanone], the IC50 fell in the range of 50 to 100 nM.

For `CC(CO)(CO)NC(=O)c1cnc2ccc(N3CCC[C@@H]3c3cc(F)ccc3F)cn12` [Example 24, (R)-6-(2-(2,5-difluorophenyl)pyrrolidin-1-yl)-N-(1,3-dihydroxy-2-methylpropan-2-yl)imidazo[1,2-a]pyridine-3-carboxamide], the IC50 is 100 to 500 nM.

As to `O=C(NC[C@H](O)CO)c1cnc2ccc(N3CCC[C@@H]3c3cc(F)ccc3F)cn12` [Example 25, 6-((R)-2-(2,5-difluorophenyl)pyrrolidin-1-yl)-N—((S)-2,3-dihydroxypropyl)imidazo[1,2-a]pyridine-3-carboxamide], the IC50 was in the range of 50 to 100 nM.

Regarding `C[C@@H](CO)NC(=O)c1cnc2ccc(N3CCC[C@@H]3c3cc(F)ccc3F)cn12` [Example 28, 6-((R)-2-(2,5-difluorophenyl)pyrrolidin-1-yl)-N—((S)-1-hydroxypropan-2-yl)imidazo[1,2-a]pyridine-3-carboxamide], the IC50 was 100 to 500 nM.

For `O=C(NC1CCOCC1)c1cnc2ccc(N3CCC[C@@H]3c3cc(F)ccc3F)cn12` [Example 30, (R)-6-(2-(2,5-difluorophenyl)pyrrolidin-1-yl)-N-(tetrahydro-2H-pyran-4-yl)imidazo[1,2-a]pyridine-3-carboxamide], the IC50 lay within 100 to 500 nM.

In the case of `CC(C)(C)S(=O)(=O)NC(=O)c1cnc2ccc(N3CCC[C@@H]3c3cc(F)ccc3F)cn12` [Example 31, (R)—N-(tert-butylsulfonyl)-6-(2-(2,5-difluorophenyl)pyrrolidin-1-yl)imidazo[1,2-a]pyridine-3-carboxamide], the IC50 lay within 100 to 500 nM.

With `CC1(S(=O)(=O)NC(=O)c2cnc3ccc(N4CCC[C@@H]4c4cc(F)ccc4F)cn23)CC1` [Example 32, (R)-6-(2-(2,5-difluorophenyl)pyrrolidin-1-yl)-N-((1-methylcyclopropyl)sulfonyl)imidazo[1,2-a]pyridine-3-carboxamide], the IC50 was 50 to 100 nM.

Staying with this assay, now noted: 5 ng TrkA, 500 μM ATP, values given as bins, read-out: TrkA inhibitory activity in-vitro IC50.
Consider `CC1(S(=O)(=O)NC(=O)c2cnc3ccc(N4CCCCC4c4cc(F)cc5c4OCCO5)cn23)CC1` (single isomer, unassigned) [Example 52, 6-(2-(7-fluoro-2,3-dihydrobenzo[b][1,4]dioxin-5-yl)piperidin-1-yl)-N-((1-methylcyclopropyl)sulfonyl)imidazo[1,2-a]pyridine-3-carboxamide], for which the IC50 was in the range of 1000 to 10000 nM.

On to `CCN(C)S(=O)(=O)NC(=O)c1cnc2ccc(N3CCCC3c3cc(F)ccc3O[C@@H]3CCOC3)cn12` (single isomer, unassigned) [Example 64], for which the half-inhibitory concentration (IC50) was 1000 to 10000 nM.

As for `CC(C)(C)S(=O)(=O)NC(=O)c1cnc2ccc(N3CCCC3c3cc(F)ccc3O[C@@H]3CCOC3)cn12` (single isomer, unassigned) [Example 66], the IC50 lay within 1000 to 10000 nM.

With `CCN(C)S(=O)(=O)NC(=O)c1cnc2ccc(N3CCCCC3c3cc(F)ccc3F)cn12` (single isomer, unassigned) [Example 70, 6-(2-(2,5-difluorophenyl)piperidin-1-yl)-N-(N-ethyl-N-methyl-sulfamoyl)imidazo[1,2-a]pyridine-3-carboxamide], the IC50 is 1000 to 10000 nM.

As to `O=C(c1cnc2ccc(N3CCCC3c3cc(F)ccc3F)cn12)N1CCOCC1` (stereo not drawn) [Example 6, (6-(2-(2,5-difluorophenyl)pyrrolidin-1-yl)imidazo[1,2-a]pyridin-3-yl)(morpholino)methanone], the IC50 was 1000 to 10000 nM.

In the case of `CN1CCN(C(=O)c2cnc3ccc(N4CCCC4c4cc(F)ccc4F)cn23)CC1` (stereo not drawn) [Example 9, (6-(2-(2,5-difluorophenyl)pyrrolidin-1-yl)imidazo[1,2-a]pyridin-3-yl)(4-methylpiperazin-1-yl)methanone], the IC50 lay within 1000 to 10000 nM.

`CN(C)C(=O)Nc1cnc2ccc(N3CCCC3c3cc(F)ccc3F)cn12` (stereo not drawn) [Example 11, 3-(6-(2-(2,5-difluorophenyl)pyrrolidin-1-yl)imidazo[1,2-a]pyridin-3-yl)-1,1-dimethylurea]: the half-inhibitory concentration (IC50) fell in the range of 1000 to 10000 nM.

Still in this assay, the particulars now being: bin with mixed units (lower bound nM, upper bound μM), read-out: TrkA inhibitory activity in-vitro IC50.
In the case of `O=C(NC12CC3CC(CC(O)(C3)C1)C2)c1cnc2ccc(N3CCC[C@@H]3c3cc(F)ccc3F)cn12` [Example 23, 6-((R)-2-(2,5-difluorophenyl)pyrrolidin-1-yl)-N-((1r,3S,5R,7S)-3-hydroxyadamantan-1-yl)imidazo[1,2-a]pyridine-3-carboxamide], the 50% inhibitory concentration (IC50) fell in the range of 500 to 1000 nM.

`CC1(O)CN(C(=O)c2cnc3ccc(N4CCC[C@@H]4c4cc(F)ccc4F)cn23)C1` [Example 26, (R)-(6-(2-(2,5-difluorophenyl)pyrrolidin-1-yl)imidazo[1,2-a]pyridin-3-yl)(3-hydroxy-3-methylazetidin-1-yl)methanone]: the IC50 was in the range of 500 to 1000 nM.

Consider `O=C(NN1CCCCC1)c1cnc2ccc(N3CCC[C@@H]3c3cc(F)ccc3F)cn12` [Example 27, (R)-6-(2-(2,5-difluorophenyl)pyrrolidin-1-yl)-N-(piperidin-1-yl)imidazo[1,2-a]pyridine-3-carboxamide], for which the IC50 was in the range of 500 to 1000 nM.
